The values that follow are results of earlier work, collected in patent US20210379001A1, “SUPPLEMENT INCLUDING GAMMA-AMINOBUTYRIC ACID FOR RESTORING GROWTH HORMONE LEVELS” (1198966 B.C. LTD., priority 2020, published 2021).

The test system of this data set is GABA levels in rat striatal tissue and striatal extracellular fluid.

SMILES strings stand for the structures.

As for `NC(=O)CC[C@H](N)C(=O)O` [L-Glutamine], where the note is “2,5 h after oral 2.0 g/kg of glutamine, vehicle-treated rats 1.76+/−0.04”, the “striatal GABA levels” value is 2.00 ± 0.15 µmol/g. In addition, the “response evoked by NMDA, over baseline” value (ECF GABA, NMDA alone 70%, P<0.05) is reported as 120%. Further, the “increase of ECF GABA concentrations” value (rat striatal extracellular fluid, P<0.05) is reported as 30%.
